Data: ChEMBL document CHEMBL1145221, “2,3-Diphenylpropionic acids as potent VLA-4 antagonists” (Bioorg Med Chem Lett, 2005)
≈ marks a conversion by molar mass, not a printed value.

Assay: physchem
Settings: water

SMILES | solubility
Cc1cccc(Br)c1C(=O)N[C@@H](Cc1ccc(NC(=O)c2c(Cl)cccc2Cl)cc1)C(=O)O | 330 µg/mL (≈ 600 µM)
COc1cccc(OC)c1-c1ccc(C[C@H](NC(=O)c2c(Cl)cccc2Cl)C(=O)O)cc1 | 219 µg/mL (≈ 462 µM)
